Source: PubChem BioAssay AID2060504 (Molecular Pharmacology Branch, DTP, NCI, 2025)
pIC50: −log10 of the molar value.

Tested on: 636577-100-R-J1-PDC complex spheroid viability
Experiment: Anticancer human tumor 636577-100-R-J1-PDC patient-derived endometrial adenocarcinoma cell line growth inhibition [GQUAD]
Settings: for pIC50: curve of first compound; for viability, T/C: stronger effect = lower value; active means viability on the fitted dose curve at most 10% of control; inactive means the rest
Text: DNA G-quadruplex Stabilizer Agents in Combinations in Complex Spheroids
A high-throughput screen of multi-cell type tumor spheroids was designed to identify active combinations of DNA G-quadruplex stabilizer agents and targeted small molecules. Complex spheroids include a stromal component modeled by human endothelial cells (HUVEC) and fibroblasts modeled by human mesenchymal stem cells (MSCs). The concentration ranges selected for each drug and investigational agent were based upon clinically achievable concentrations if the clinical Cmax of the agent was known.
Compounds. The drugs and investigational agents: pidnarulex (CX-5461; NSC782164), APTO-253 (NSC789042), BRACO-19 (NSC847499), peposertib (NSC802822), ceralasertib (NSC780249), elimusertib (NSC800525), camonsertib (NSC841442), AZD-1390 (NSC803789), olaparib (NSC753686), talazoparib (NSC767125), ART-558 (NSC835418), sotorasib (NSC818433), MRTX-1133 (NSC836407), SN-38 (NSC673596), topotecan (NSC609699), etoposide (NSC141540), doxorubicin (NSC123127), gemcitabine (NSC613327), 5-fluorouracil (NSC19893), paclitaxel (NSC125973), vemurafenib (NSC761431), panobinostat (NSC761190), R-306465 (JNJ-16241199; NSC773264), adavosertib (NSC754352), TP-3654 (NSC805149), carboplatin (NSC241240), KSQ-4279 (NSC840948), and staurosporine (NSC755774) were obtained from the National Cancer Institute (NCI) Developmental Therapeutics Program Chemical Repository (34). The FDA-approved anticancer drug set is available from the NCI Developmental Therapeutics Program. […] The stock solutions were prepared in dimethyl sulfoxide (DMSO, Sigma-Aldrich, St. Louis, MO, cat. D2650) at 800-fold the tested concentration and stored at -70 degrees C prior to their use. All drugs and investigational agents were tested over a range starting from a high concentration at or near the clinical Cmax and decreasing in half-log increments. If the clinical Cmax for an agent had not been determined, the highest concentration tested was 10 microM.
2.3 Cell Culture. All cells were maintained in an incubator at 37 degrees C and 5% CO2 with 95% humidity. The PDC lines were cultured according to standard operating procedures established by the NCI PDMR. All PDCs were thawed and cultured in Matrigel-coated flasks prepared with a working solution of 1X Ham's F-12 nutrient mix, without supplementation (Invitrogen, cat. 11765054), 100 U/mL penicillin-streptomycin (Invitrogen, cat. 15140122), and 2.5% Matrigel (Corning Inc., cat. 354248) for the first three passages. The 857933-349-R-J2-PDC line was cultured in 6C/Colon 1B media, which includes advanced DMEM/F-12 (Thermo Fisher Scientific, cat. 12634028), 10 mM HEPES (Thermo Fisher Scientific, cat. 15630080), 1X GlutaMAX supplement (Thermo Fisher Scientific, cat. 35050061), 0.1 mg/mL primocin (InvivoGen, cat. ant-pm-2), 10% defined fetal bovine serum, heat inactivated (HyClone Laboratories Inc., cat. SH30070.03HI), 50% L-WRN conditioned media (ATCC, cat. CRL-3276), 1.25 mM N-Acetyl-L-cysteine (Sigma-Aldrich, cat. A9165), 10 mM nicotinamide (Sigma-Aldrich, cat. N0636), 1X B-27 supplement (Thermo Fisher Scientific, cat. 17504044), 1X N-2 supplement (Thermo Fisher Scientific, cat. 17502048), 10 microM Y-27632 dihydrochloride (Tocris Bioscience, cat. 1254), and 50 ng/mL human EGF recombinant protein (Thermo Fisher Scientific, cat. PHG0311). The 485176-168-R4-J1-PDC line was cultured in Panc media, which includes all 6C/Colon 1B media components plus 100 ng/mL human FGF-10 (Thermo Fisher Scientific, cat. 100-26), 500 nM SB-431542 (Selleckchem, cat. S1067), and gastrin (Tocris, cat. 3006).
[…]

[1] = second compound 0.0316 µM, first compound 0.0316 µM
[2] = second compound 0.0316 µM, first compound 0.1 µM
[3] = second compound 0.0316 µM, first compound 0.316 µM
[4] = second compound 0.0316 µM, first compound 1 µM
[5] = second compound 0.0316 µM, first compound 3.16 µM
[6] = second compound 0.0316 µM, first compound 10 µM
[7] = second compound 0.1 µM, first compound 0.0316 µM
[8] = second compound 0.1 µM, first compound 0.1 µM
[9] = second compound 0.1 µM, first compound 0.316 µM
[10] = second compound 0.1 µM, first compound 1 µM
[11] = second compound 0.1 µM, first compound 3.16 µM
[12] = second compound 0.1 µM, first compound 10 µM
[13] = second compound 0.316 µM, first compound 0.0316 µM
[14] = second compound 0.316 µM, first compound 0.1 µM
[15] = second compound 0.316 µM, first compound 0.316 µM
[16] = second compound 0.316 µM, first compound 1 µM
[17] = second compound 0.316 µM, first compound 3.16 µM
[18] = second compound 0.316 µM, first compound 10 µM
[19] = second compound 1 µM, first compound 0.0316 µM
[20] = second compound 1 µM, first compound 0.1 µM
[21] = second compound 1 µM, first compound 0.316 µM
[22] = second compound 1 µM, first compound 1 µM
[23] = second compound 1 µM, first compound 3.16 µM
[24] = second compound 1 µM, first compound 10 µM
[25] = second compound 3.16 µM, first compound 0.0316 µM
[26] = second compound 3.16 µM, first compound 0.1 µM
[27] = second compound 3.16 µM, first compound 0.316 µM
[28] = second compound 3.16 µM, first compound 1 µM
[29] = second compound 3.16 µM, first compound 3.16 µM
[30] = second compound 3.16 µM, first compound 10 µM
[31] = second compound 10 µM, first compound 0.0316 µM
[32] = second compound 10 µM, first compound 0.1 µM
[33] = second compound 10 µM, first compound 0.316 µM
[34] = second compound 10 µM, first compound 1 µM
[35] = second compound 10 µM, first compound 3.16 µM
[36] = second compound 10 µM, first compound 10 µM
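Further: viability read after seven days of drug exposure.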
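Wherever viability, T/C is given: luminescence signal used as a proxy for viable cells; 100% = DMSO vehicle control wells.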

COc1ccc([C@@H](O)c2cc(-c3ncnc4cc(N5CCOCC5)ccc34)c(F)cc2Cl)nn1 + CN(C)c1ccc(Nc2c3ccc(NC(=O)CCN4CCCC4)cc3nc3cc(NC(=O)CCN4CCCC4)ccc23)cc1
5.81: pIC50 (second compound 0.0316 µM)
inactive: viability, T/C [1] 93.7% | viability, T/C [2] 98% | viability, T/C [3] 88.5% | viability, T/C [4] 55.3% | viability, T/C [5] 39.1% | viability, T/C [6] 20.1% | viability, T/C [7] 102% | viability, T/C [8] 63.5% | viability, T/C [9] 58.3% | viability, T/C [10] 44% | viability, T/C [11] 37% | viability, T/C [12] 19.8% | viability, T/C [13] 77.5% | viability, T/C [14] 77.2% | viability, T/C [15] 61% | viability, T/C [16] 27.6% | viability, T/C [17] 24% | viability, T/C [18] 12.1% | viability, T/C [19] 73.2% | viability, T/C [20] 47.4% | viability, T/C [21] 50.6% | viability, T/C [22] 25.5% | viability, T/C [23] 17.4% | viability, T/C [24] 11.7% | viability, T/C [25] 35.3% | viability, T/C [26] 40.5% | viability, T/C [27] 24% | viability, T/C [28] 14.5% | viability, T/C [29] 9.36%
6.31: pIC50 (second compound 0.1 µM)
active: viability, T/C [30] 7.69% | viability, T/C [31] 5.37% | viability, T/C [32] 4.81% | viability, T/C [33] 3.18% | viability, T/C [34] 2.32% | viability, T/C [35] 1.95% | viability, T/C [36] 0.58%
> 7.50: pIC50 (second compound 3.16 µM) | pIC50 (second compound 10 µM)
6.82: pIC50 (second compound 1 µM)
6.33: pIC50 (second compound 0.316 µM)

COc1cccc2c1C(=O)c1c(O)c3c(c(O)c1C2=O)CC(O)(C(=O)CO)CC3OC1CC(N)C(O)C(C)O1 (stereo unspecified) + CN(C)c1ccc(Nc2c3ccc(NC(=O)CCN4CCCC4)cc3nc3cc(NC(=O)CCN4CCCC4)ccc23)cc1
> 7.50: pIC50 (second compound 0.0316 µM) | pIC50 (second compound 0.1 µM) | pIC50 (second compound 0.316 µM) | pIC50 (second compound 1 µM) | pIC50 (second compound 3.16 µM) | pIC50 (second compound 10 µM)
inactive: viability, T/C [1] 28% | viability, T/C [2] 17.2% | viability, T/C [3] 15.3% | viability, T/C [7] 27.2% | viability, T/C [8] 15.9% | viability, T/C [9] 15.3% | viability, T/C [13] 28% | viability, T/C [14] 18.6% | viability, T/C [15] 12.9% | viability, T/C [19] 25% | viability, T/C [20] 18.6% | viability, T/C [21] 13.3% | viability, T/C [25] 19.4% | viability, T/C [26] 17.2%
active: viability, T/C [4] 7.48% | viability, T/C [5] 0.17% | viability, T/C [6] 0.58% | viability, T/C [10] 7.46% | viability, T/C [11] 0.12% | viability, T/C [12] 0.61% | viability, T/C [16] 7.67% | viability, T/C [17] 0.2% | viability, T/C [18] 0.5% | viability, T/C [22] 7.58% | viability, T/C [23] 0.13% | viability, T/C [24] 0.47% | viability, T/C [27] 10.8% | viability, T/C [28] 3.65% | viability, T/C [29] 0.16% | viability, T/C [30] 0.34% | viability, T/C [31] 4.99% | viability, T/C [32] 3.27% | viability, T/C [33] 1.84% | viability, T/C [34] 0.34% | viability, T/C [35] 0.19% | viability, T/C [36] 0.27%

CC1COCCN1c1cc(-c2ccnn2C)c2ccnc(-c3ccn[nH]3)c2n1 (stereo unspecified) + Cc1[nH]c2ccc(F)cc2c1-c1nc2c3cccnc3c3ncccc3c2[nH]1
6.98: pIC50 (second compound 0.316 µM)
active: viability, T/C [5] 7.12% | viability, T/C [6] 4.03% | viability, T/C [11] 8.62% | viability, T/C [12] 4.31% | viability, T/C [17] 8.77% | viability, T/C [18] 4.31% | viability, T/C [23] 8.69% | viability, T/C [24] 3.56% | viability, T/C [29] 6.94% | viability, T/C [30] 3.78% | viability, T/C [35] 8.7% | viability, T/C [36] 4.88%
> 7.50: pIC50 (second compound 1 µM) | pIC50 (second compound 3.16 µM) | pIC50 (second compound 10 µM)
7.07: pIC50 (second compound 0.1 µM)
7.01: pIC50 (second compound 0.0316 µM)
inactive: viability, T/C [1] 89.7% | viability, T/C [2] 48.1% | viability, T/C [3] 26.9% | viability, T/C [4] 10.8% | viability, T/C [7] 59.4% | viability, T/C [8] 49.1% | viability, T/C [9] 23.9% | viability, T/C [10] 11.4% | viability, T/C [13] 59.4% | viability, T/C [14] 52.9% | viability, T/C [15] 25.8% | viability, T/C [16] 14.5% | viability, T/C [19] 39% | viability, T/C [20] 32.5% | viability, T/C [21] 23% | viability, T/C [22] 15% | viability, T/C [25] 16.9% | viability, T/C [26] 18.7% | viability, T/C [27] 15.5% | viability, T/C [28] 9.23% | viability, T/C [31] 41.6% | viability, T/C [32] 24.7% | viability, T/C [33] 20.6% | viability, T/C [34] 13.2%
